The values that follow come from patent US9546158B2, “2,5-substituted pyrimidines” (Grünenthal GmbH, priority 2014, dated 2017).

Data set [1] addresses T1, human PDE4B1 (Homo sapiens, UniProt Q07343).
T1 construct: host or cells: Sf9 cells
Kind of data set: TR-FRET assay using the LANCE Ultra cAMP kit to determine the activity of hPDE4B1. It is filed as biochemical. Particulars: test substrate concentration of 10 μM, read-out: Inhibition of PDE4B, Inhibition in %. From the text: TR-FRET Assay Using the LANCE® Ultra cAMP Kit to Determine the Activity of hPDE4B1
The effects of the compounds on the activity of the human PDE4B1 was quantified by measuring the production of 5′AMP from cAMP using a human recombinant enzyme expressed in Sf9 cells and the LANCE® Ultra cAMP kit, a TR-FRET detection method from PerkinElmer. The human PDE4B1 enzyme was purchased from SignalChem Lifesciences (Catalog #P92-31BG, Lot #H296-2).
The test compound, reference compound or water (control) was mixed with the enzyme (0.96 U) in a reaction buffer containing 50 mM Tris-HCl, 50 mM MgCl2 and 5 mM DTT (pH 8.5). Thereafter, the reaction was initiated by addition of 500 nM cAMP (substrate) and the mixture was incubated for 30 minutes at room temperature. For control basal measurements, the enzyme was omitted from the reaction mixture. After 30 minutes, the reaction was stopped and diluted by a factor of 100 with the reaction buffer supplemented with 500 μM IBMX. The fluorescence donor (europium chelate-labeled cAMP) and the fluorescence acceptor (anti-cAMP antibody labeled with the ULight™ dye) were then added together with 500 μM IBMX to a 10 μl aliquot. After 60 minutes, the fluorescence transfer corresponding to the amount of residual cAMP was measured at λex=337 nm, λem=620 nm and λem=665 nm using a microplate reader (PHERAstar, BMG). The enzyme activity was determined by dividing the signal measured at 665 nm by that measured at 620 nm (ratio) multiplied by 10000. The results were expressed as percent inhibition of the control enzyme activity. IC50 values (IC50=concentration causing a half-maximal inhibition of control specific activity) were derived from dose response measurements with ten different concentrations (n=3; N=1-3).
Background: In TR-FRET formats the signal depends on donor and acceptor labels being close together.

T1 sequence (Q07343 whole entry): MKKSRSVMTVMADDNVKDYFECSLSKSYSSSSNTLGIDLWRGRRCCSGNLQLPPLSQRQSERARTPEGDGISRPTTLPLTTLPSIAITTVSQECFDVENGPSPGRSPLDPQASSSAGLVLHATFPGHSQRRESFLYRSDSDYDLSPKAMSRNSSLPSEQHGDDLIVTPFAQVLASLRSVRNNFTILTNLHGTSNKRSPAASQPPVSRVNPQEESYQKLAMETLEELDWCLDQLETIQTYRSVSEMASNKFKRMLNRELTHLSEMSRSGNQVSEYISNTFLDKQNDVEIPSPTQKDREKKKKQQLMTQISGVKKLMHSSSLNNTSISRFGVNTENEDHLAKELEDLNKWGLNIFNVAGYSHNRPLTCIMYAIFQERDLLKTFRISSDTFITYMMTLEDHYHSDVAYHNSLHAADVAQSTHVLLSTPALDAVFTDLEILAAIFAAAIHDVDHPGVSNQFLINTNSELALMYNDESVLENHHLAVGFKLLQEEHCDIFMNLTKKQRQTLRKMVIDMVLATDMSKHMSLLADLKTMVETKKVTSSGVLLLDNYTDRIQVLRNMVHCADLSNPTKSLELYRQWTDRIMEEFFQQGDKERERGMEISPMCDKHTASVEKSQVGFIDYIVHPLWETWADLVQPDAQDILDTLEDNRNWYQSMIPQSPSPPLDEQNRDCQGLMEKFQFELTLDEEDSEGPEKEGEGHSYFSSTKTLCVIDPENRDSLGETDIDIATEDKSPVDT

For `Cc1nn(-c2ncc(-c3cc([S+](C)[O-])ccc3F)cn2)c2cc(C(=O)N(C)CC(N)=O)ccc12` (centres unmarked) [Compound No. 64, N-(2-Amino-2-oxoethyl)-1-(5-(2-fluoro-5-(methylsulfinyl)phenyl)pyrimidin-2-yl)-N,3-dimethyl-1H-indazole-6-carboxamide], the melting point (as a rule, the temperature of the solid-liquid transition) is 164 to 168 °C. In data set [1], the inhibition – broadly, how much of the control response was suppressed – at 10 µM was determined as 42%.
